The record followed here is US6720346B2, “Thiazole benzamide derivatives and pharmaceutical compositions for inhibiting cell proliferation” (Agouron Pharmaceuticals, Inc., priority 2001, dated 2004).

The term inhibition denotes the percentage by which the read-out fell short of the control. The IC50 is the point on the concentration scale where inhibition reaches its midpoint. For orientation: melting point means the temperature of the solid-liquid transition.

Structures can show the parent of a compound that is named as a salt.

Data set [1] concerns the target T1, CDK2/cyclin A (Homo sapiens, UniProt P24941).
T1 construct: made in house; host or cells: CDK2: insect cells (baculovirus); cyclin A: E. coli
Kind of data set: Inhibition of CDK2/cyclin A retinoblastoma kinase activity (Ki; % inhibition). The note with it: apparent Ki, CDK2/cyclin A, Rb substrate. The data set is classed as biochemical. The method, boiled down:
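Radiometric filter assay of CDK2/proteolyzed cyclin A (baculovirus-expressed human CDK2, 10 or 19 nM) phosphorylating an Rb fragment with 25 μM [³²P/³³P]ATP in pH 7.4 HEPES, 2% DMSO, at 30 °C for 60 or 75 min under initial-rate conditions. Library compounds screened at 30 nM for % inhibition; apparent Ki from concentration series fit to competitive or tight-binding inhibition equations.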

Data set [2] addresses T2, Phosphorylated FGF receptor kinase (FGFR1 cytosolic domain) (Homo sapiens, UniProt P11362, C488A/C584S/L457V).
T2 construct: FGFR1 tyrosine kinase (amino acids 456-766); made in house; host or cells: Sf9 insect cells (baculovirus)
Kind of data set: Inhibition of phosphorylated FGF receptor tyrosine kinase activity (coupled spectrophotometric assay). The data set is classed as biochemical. Particulars: read-out: P-FGF % Inhibition at 1 μM. The protocol: (§1) Cloning, expression and purification of the cytosolic domain of FGFR1 tyrosine kinase (amino acids 456-766) containing three amino acid substitutions (L457V, C488A, and C584S) were conducted as previously described (Mohammadi, M., Schiessinger, J., & Hubbard, S. R. Cell, 86, (1996) 577-587). This domain was expressed in Sf9 insect cells using a baculovirus expression vector, and protein was purified using conventional techniques. The LCK tyrosine kinase was expressed in insect cells as an N-terminal deletion starting from amino acid 223 to the end of the protein at amino acid 509. The N-terminus of the protein also had two amino acid substitutions, P223M and C224D. Kinases were purified using conventional chromatographic methods.
(§2) Tyrosine kinase activity was measured using a coupled, continuous spectrophotometric assay, in which production of phosphorylated poly(Glu,Tyr; 4:1) substrate and ADP is coupled to the pyruvate kinase-catalyzed transfer of a phosphate from phosphoenolpyruvate to ADP, with generation of pyruvate and regeneration of ATP. Pyruvate production is in turn coupled to the lactate dehydrogenase-catalyzed reduction of pyruvate to form lactate, with concomitant conversion of NADH to NAD^+. Loss of NADH is monitored by measuring absorbance at 340 nm (see e.g., Technikova-Dobrova et al., “Spectrophotometric Determination of Functional Characteristics of Protein Kinases with Coupled Enzymatic Assay,” FEBS Letters, 292 (1991), pp. 69-72). Enzyme activity was measured in the presence of 200 mM HEPES (pH 7.5), 2 mM phosphoenolpyruvate, 0.3 mM NADH, 20 mM MgCl2, 100 μM ATP, 5 mM DTT, 5.1 or 25 mM poly (Glu,Tyr) 4:1 for P-FGF or P-LCK assays, respectively, and 15 units/mL each of pyruvate kinase and lactate dehydrogenase. Phosphorylated FGF receptor kinase was present at 100 nM and phosphorylated LCK kinase was present at 50 nM. Assays were performed under initial rate conditions at 37° C., and rates were corrected for any background rate measured in the absence of enzyme. Percent inhibition was calculated relative to control enzyme assayed in the presence of 2% (v/v) DMSO.

Data set [3] concerns HCT-116 cell line. Kind of data set: Inhibition of cell growth, MTT tetrazolium salt assay. It counts as cell-based. The note with it: Homo sapiens, HCT-116, 120 h; MTT, three to five days. Summed up: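 Growth inhibition was read as MTT-formazan absorbance at 540 nm, after 4 h with 0.2 mg/mL MTT. Before that, HCT-116 cells had been exposed 3–5 days at 37 °C to compounds in 0.5% (v/v) DMSO, added 4 h after plating. 50% and 90% inhibitory concentrations were taken from semi-log concentration–inhibition plots versus vehicle controls.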

Data set [4] addresses T3, phosphorylated LCK kinase (Homo sapiens, UniProt P06239, C224D/P223M).
T3 construct: starting from amino acid 223 to the end of the protein at amino acid 509; made in house; host or cells: insect cells
The data set is described as follows: Inhibition of phosphorylated LCK tyrosine kinase activity (coupled spectrophotometric assay). It counts as biochemical. The note with it: read-out: P-LCK % Inhibition at 1 μM. The protocol: as §1, §2

In data set [5] the target is T4, human CDK4/cyclin D3 (Homo sapiens, UniProt P11802).
T4 construct: made in house; host or cells: insect cells co-infected with baculovirus vectors
The data set is described as follows: Inhibition of CDK4/cyclin D retinoblastoma kinase activity (Ki; % inhibition). The note with it: apparent Ki, CDK4/cyclin D3, Rb substrate. It counts as biochemical. The method, boiled down:
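Insect-cell-expressed CDK4 with truncated cyclin D3 (1-264), 5 nM, phosphorylating His-tagged Rb fragment (386-928) with 25 μM [32/33P]ATP at pH 7.4, 30 °C, 20 min (60 min for tight binders). Filter capture, phosphorimager read; % inhibition at 30 nM compound, Ki from competitive or tight-binding fits.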

In data set [6] the target is T5, human CDK1 (cdc2)/cyclin B (Homo sapiens, UniProt P06493).
T5 construct: purchased New England Biolabs (Beverly, Mass.)
The data set is described as follows: Inhibition of CDK1 (cdc2)/cyclin B histone H1 kinase activity. It counts as biochemical. Particulars: histone H1 substrate. The protocol:
Cyclin-dependent kinase activity was measured by quantifying the enzyme-catalyzed, time-dependent incorporation of radioactive phosphate from [^32P]ATP or [^33P]ATP into a protein substrate. Unless noted otherwise, assays were performed in 96-well plates in a total volume of 50 μL, in the presence of 10 mM HEPES (N-[2-hydroxyethyl]piperazine-N′-[2-ethanesulfonic acid]) (pH 7.4), 10 mM MgCl2, 25 μM adenosine triphosphate (ATP), 1 mg/mL ovalbumin, 5 μg/mL leupeptin, 1 mM dithiothreitol, 10 mM β-glycerophosphate, 0.1 mM sodium vanadate, 1 mM sodium fluoride, 2.5 mM ethylene glycol-bis(β-aminoethyl ether)-N,N,N′N′-tetraacetic acid (EGTA), 2% (v/v) dimethylsulfoxide, and 0.03-0.4 μCi [^32/33P]ATP per reaction. Reactions were initiated with enzyme, incubated at 30° C., and terminated after 20 minutes by the addition of ethylenediaminetetraacetic acid (EDTA) to 250 mM. The phosphorylated substrate was then captured on a nitrocellulose or phosphocellulose membrane using a 96-well filtration manifold, and unincorporated radioactivity was removed by repeated washing with 0.85% phosphoric acid. Radioactivity was quantified by exposing the dried membranes to a phosphorimager.
Compounds from combinatorial libraries were screened from 96-well plates for % inhibition of CDK activity at 30 nM theoretical compound concentration. Inhibition was measured relative to control wells that contained all reaction components including 2% (v/v) DMSO but no compound, after subtraction of background radioactivity measured in the absence of enzyme. Apparent Ki values of discrete compounds were measured by assaying enzyme activity in the presence of different inhibitor compound concentrations and subtracting the background radioactivity measured in the absence of enzyme. The kinetic parameters (kcat, Km for ATP) were measured for each enzyme under the usual assay conditions by determining the dependence of initial rates on ATP concentration. Inhibition data were fit to an equation for competitive inhibition using Kaleidagraph (Synergy Software), or were fit to an equation for competitive tight-binding inhibition using the software KineTic (BioKin, Ltd.).
The complex of human CDK1 (cdc2) and cyclin B was purchased from New England Biolabs (Beverly, Mass.). Alternatively, a CDK1/glutathione-S-transferase-cyclin B1 complex was purified using glutathione affinity chromatography from insect cells that had been co-infected with the corresponding baculovirus expression vectors. The assay was executed as described above at 30° C. using 2.5 units of cdc2/cyclin B, 10 μg Histone H1 protein, and 0.1-0.3 μCi [^32/33P]ATP per assay. Phosphorylated histone substrate was captured by microfiltration on a phosphocellulose P81 membrane and quantified using a phosphorimager as described above. Ki values were measured using the described curve-fitting programs.

T4 sequence (P11802 whole entry): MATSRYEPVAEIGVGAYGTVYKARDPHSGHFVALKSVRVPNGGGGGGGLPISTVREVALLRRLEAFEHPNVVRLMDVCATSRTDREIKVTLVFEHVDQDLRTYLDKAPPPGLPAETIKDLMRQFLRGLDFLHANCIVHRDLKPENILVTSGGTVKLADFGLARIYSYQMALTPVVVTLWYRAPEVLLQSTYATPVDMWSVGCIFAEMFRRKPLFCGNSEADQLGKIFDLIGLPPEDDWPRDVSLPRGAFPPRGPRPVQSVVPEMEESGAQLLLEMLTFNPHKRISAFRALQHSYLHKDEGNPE
T4 sequence (P30281 1-264 partner limits assumed): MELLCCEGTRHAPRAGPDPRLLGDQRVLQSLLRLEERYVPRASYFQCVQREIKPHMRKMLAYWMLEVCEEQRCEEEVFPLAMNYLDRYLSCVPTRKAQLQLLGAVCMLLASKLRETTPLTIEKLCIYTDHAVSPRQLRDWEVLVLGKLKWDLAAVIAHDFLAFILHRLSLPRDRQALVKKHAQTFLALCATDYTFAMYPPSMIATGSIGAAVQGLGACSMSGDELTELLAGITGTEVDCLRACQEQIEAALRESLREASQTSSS
T3 sequence (P06239 223-509 P223M/C224D): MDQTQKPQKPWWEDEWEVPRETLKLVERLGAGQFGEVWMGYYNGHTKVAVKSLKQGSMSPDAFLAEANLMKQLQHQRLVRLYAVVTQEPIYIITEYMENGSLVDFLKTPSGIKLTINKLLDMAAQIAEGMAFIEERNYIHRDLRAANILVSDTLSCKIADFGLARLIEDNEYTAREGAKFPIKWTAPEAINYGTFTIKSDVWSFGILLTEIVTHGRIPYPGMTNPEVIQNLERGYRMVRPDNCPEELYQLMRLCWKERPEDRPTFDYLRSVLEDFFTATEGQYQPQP
T2 sequence (P11362 456-766 L457V/C488A/C584S): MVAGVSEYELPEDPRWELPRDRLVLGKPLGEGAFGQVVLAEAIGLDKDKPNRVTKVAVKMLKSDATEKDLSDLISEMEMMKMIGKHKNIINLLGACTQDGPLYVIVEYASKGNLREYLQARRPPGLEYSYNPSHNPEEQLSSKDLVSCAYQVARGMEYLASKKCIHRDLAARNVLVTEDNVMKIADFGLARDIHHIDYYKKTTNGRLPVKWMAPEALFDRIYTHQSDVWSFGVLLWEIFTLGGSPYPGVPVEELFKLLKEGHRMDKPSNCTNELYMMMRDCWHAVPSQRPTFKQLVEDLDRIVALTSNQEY
T5 sequence (P06493 whole entry): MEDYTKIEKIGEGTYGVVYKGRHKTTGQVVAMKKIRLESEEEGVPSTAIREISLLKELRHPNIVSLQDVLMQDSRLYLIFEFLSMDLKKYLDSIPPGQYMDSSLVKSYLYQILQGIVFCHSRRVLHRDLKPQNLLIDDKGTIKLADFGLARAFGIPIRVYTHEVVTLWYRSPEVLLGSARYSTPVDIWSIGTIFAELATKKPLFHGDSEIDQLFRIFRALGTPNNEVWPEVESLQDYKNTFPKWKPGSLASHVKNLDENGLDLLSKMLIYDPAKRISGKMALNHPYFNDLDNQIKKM
T5 sequence (P14635 whole entry partner): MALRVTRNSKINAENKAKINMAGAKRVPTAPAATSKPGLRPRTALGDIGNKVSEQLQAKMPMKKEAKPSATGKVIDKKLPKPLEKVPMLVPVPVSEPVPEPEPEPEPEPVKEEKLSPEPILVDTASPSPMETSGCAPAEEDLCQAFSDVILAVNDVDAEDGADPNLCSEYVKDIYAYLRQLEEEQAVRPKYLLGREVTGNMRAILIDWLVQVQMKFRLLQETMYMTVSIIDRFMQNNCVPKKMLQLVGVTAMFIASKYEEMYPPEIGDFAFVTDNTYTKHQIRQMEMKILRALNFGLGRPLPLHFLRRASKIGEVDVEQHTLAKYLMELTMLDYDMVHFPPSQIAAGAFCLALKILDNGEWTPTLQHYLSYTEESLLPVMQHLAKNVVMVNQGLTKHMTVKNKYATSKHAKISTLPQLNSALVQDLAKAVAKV

In the case of `Nc1nc(Nc2ccc(C(=O)NCCNc3ccccc3)cc2)sc1C(=O)c1c(F)cccc1F` [Example A2, 4-[4-Amino-5-(2,6-difluoro-benzoyl)-thiazol-2-ylamino]-N-(2-phenylamino-ethyl)-benzamide], the Ki in data set [1] turned out to be 0.0032 µM; in data set [5], 0.008 µM. The inhibition at 1 µM is 8% in data set [2] and 4% in data set [4]. For the same molecule, in data set [3], the IC50 worked out at 0.14 µM.

As for `C[C@H](CNC(=O)c1ccc(Nc2nc(N)c(C(=O)c3c(F)cccc3F)s2)cc1)N(C)C` [Example A44, 4-[4-Amino-5-(2,6-difluoro-benzoyl)-thiazol-2-ylamino]-N-(2R-dimethylamino-propyl)-benzamide], the Ki in data set [1] is 0.12 µM; in data set [6], 0.072 µM; in data set [5], 0.01 µM. Besides, the IC50 in data set [3] was 0.13 µM.

On to `CN(C)CC(C)(C)NC(=O)c1ccc(Nc2nc(N)c(C(=O)c3c(F)cccc3F)s2)cc1` (as salt: hydrochloride) [Example A61, 4-[4-Amino-5-(2,6-difluoro-benzoyl)-thiazol-2-ylamino]-N-(2-dimethylamino-1,1-dimethyl-ethyl)-benzamide Dihydrochloride], for which the melting point is 275 to 290 °C (dec.).

As to `CC(CCCC(C)(C)O)NC(=O)c1ccc(Nc2nc(N)c(C(=O)c3c(F)cccc3F)s2)cc1` (stereo not drawn) [Example A5, 4-[4-Amino-5-(2,6-difluoro-benzoyl)-thiazol-2-ylamino]-N-(6-hydroxy-6-methyl-hept-2-yl)-benzamide], the Ki came out at 0.072 µM in data set [1] and 0.066 µM in data set [5]. In addition, the inhibition at 1 µM in data set [2] amounted to 5%; in data set [4], 3%. Besides, the IC50 in data set [3] stood at 1.2 µM.
